Measured values published in patent publication US20110263574A1, “PIRENZEPINE AS OTOPROTECTIVE AGENT” (PROTEOSYS AG, priority 2009, published 2011).
“Also recorded” adds a separate entry of the source.

Legend:
PARP-1 = details: induced by transient ischemia or acoustic trauma; Tabuchi et al.; cited from earlier work
[1] = tested on: germ cell tumor cell line 2101 Ep; experiment: Survival rate of cis-platin treated cancer cell line 2101 Ep with simultaneous test compound; format: cell-based; details: 2101 Ep cells; cis-platin 1.4 μM; 10 μM test compound simultaneously; control DMSO 0.1%
Outer hair cells (OHC) = experiment: Otoprotection in cultivated cochlea, cis-platin induced loss of outer hair cells; format: cell-based; details: cultivated cochlea of post-natal mice; cis-platin 5 μM; test compound 0.1 to 100 μM; compared to controls
Method: (§1) In cultivated cochlea, a loss of sensory or hair cells was induced by administering cis-platin (5 μM).
(§2) Intact cochlea of post-natal mice were cultivated up to 7 days (Unsworth and Lelkes, Nat. Med. 4 (1998), 901-907) in simulated microgravity.
(§3) The otic protectivity of the test compounds PSY 310 and PSY 3101 in the presence of ototoxic agents was tested. Neomycin (an aminoglycoside antibiotic) and cis-platinum (a chemotherapeutic agent) were added in three different concentrations to the cultivate organ over a time period of 48 hours.
(§4) The test compounds were added in six different amounts of 0.1 to 100 μM respectively.

[2] = tested on: germ cell tumor cell line NT2; experiment: Survival rate of cis-platin treated cancer cell line NT2 with simultaneous test compound; format: cell-based; details: cis-platin 1.4 μM, 10 μM test compound simultaneously, control DMSO 0.1%
Inner hair cells (IHC) = experiment: Otoprotection in cultivated cochlea, cis-platin induced loss of inner hair cells; format: cell-based; details: cultivated cochlea of post-natal mice; cis-platin 5 μM; test compound 0.1 to 100 μM; compared to controls
Method: as §1, §2, §3, §4

| SMILES | effect on cochleal dysfunctions (PARP-1) | effect on cytotoxic effect of cis-platinum (survival rate of cancer cells) [1] | preserved fraction of outer hair cells (hair cell protection) (Outer hair cells (OHC)) | effect on cytotoxic effect of cis-platinum (survival rate of cancer cells) [2] | preserved fraction of inner hair cells (hair cell protection) (Inner hair cells (IHC)) |
| --- | --- | --- | --- | --- | --- |
| NC(=O)c1cccc(N)c1 [3-aminobenzamide] | alleviates |  |  |  |  |
| CN1CCN(CC(=O)N2c3ccccc3C(=O)Nc3cccnc32)CC1 [pirenzepine] |  | does not reduce | dosis dependent protection; also recorded: dose-dependent increase | does not reduce | dosis dependent protection; also recorded: dose-dependent increase |
